Patent US6869589B1, “Cryptate compounds and methods for diagnosis and therapy” (Australian Nuclear Science & Technology Organization, priority 1999, dated 2005)

Experiment: Biodistribution of ^64Cu complexes in balb/c mice
Method: The biodistribution of the ^64Cu complexes of compounds (1), (3) and (4) (0.10 ml intravenous injection) were evaluated in balb/c mice (5 animals per time point) at 3, 5, 10, 15, 20 and 30 minute time intervals. Biodistribution studies were performed in duplicate.

## Nc1ccc(CNC23CNCCNCC(N)(CNCCNC2)CNCCNC3)cc1.[64Cu+2] [^64Cu-labelled compound (3)]
BLADDER, 3 MIN
  % injected dose per gram: 11.36 % INJECTED DOSE PER GRAM
BLADDER, 5 MIN
  % injected dose per gram: 12.31 % INJECTED DOSE PER GRAM
BLADDER, 10 MIN
  % injected dose per gram: 14.36 % INJECTED DOSE PER GRAM
BLADDER, 15 MIN
  % injected dose per gram: 10.54 % INJECTED DOSE PER GRAM
BLADDER, 20 MIN
  % injected dose per gram: 13.45 % INJECTED DOSE PER GRAM
BLADDER, 30 MIN
  % injected dose per gram: 2.74 % INJECTED DOSE PER GRAM
BLOOD, 3 MIN
  % injected dose per gram: 7.74 % INJECTED DOSE PER GRAM
BLOOD, 5 MIN
  % injected dose per gram: 8.19 % INJECTED DOSE PER GRAM
BLOOD, 10 MIN
  % injected dose per gram: 5.23 % INJECTED DOSE PER GRAM
BLOOD, 15 MIN
  % injected dose per gram: 4.39 % INJECTED DOSE PER GRAM
BLOOD, 20 MIN
  % injected dose per gram: 3.05 % INJECTED DOSE PER GRAM
BLOOD, 30 MIN
  % injected dose per gram: 1.25 % INJECTED DOSE PER GRAM
BONE, 3 MIN
  % injected dose per gram: 1.68 % INJECTED DOSE PER GRAM
BONE, 5 MIN
  % injected dose per gram: 2.11 % INJECTED DOSE PER GRAM
BONE, 10 MIN
  % injected dose per gram: 1.29 % INJECTED DOSE PER GRAM
BONE, 15 MIN
  % injected dose per gram: 1.36 % INJECTED DOSE PER GRAM
BONE, 20 MIN
  % injected dose per gram: 1.11 % INJECTED DOSE PER GRAM
BONE, 30 MIN
  % injected dose per gram: 0.72 % INJECTED DOSE PER GRAM
GIT, 3 MIN
  % injected dose per gram: 2.66 % INJECTED DOSE PER GRAM
GIT, 5 MIN
  % injected dose per gram: 2.88 % INJECTED DOSE PER GRAM
GIT, 10 MIN
  % injected dose per gram: 1.80 % INJECTED DOSE PER GRAM
GIT, 15 MIN
  % injected dose per gram: 2.92 % INJECTED DOSE PER GRAM
GIT, 20 MIN
  % injected dose per gram: 1.05 % INJECTED DOSE PER GRAM
GIT, 30 MIN
  % injected dose per gram: 0.55 % INJECTED DOSE PER GRAM
HEART, 3 MIN
  % injected dose per gram: 2.79 % INJECTED DOSE PER GRAM
HEART, 5 MIN
  % injected dose per gram: 3.00 % INJECTED DOSE PER GRAM
HEART, 10 MIN
  % injected dose per gram: 2.03 % INJECTED DOSE PER GRAM
HEART, 15 MIN
  % injected dose per gram: 1.56 % INJECTED DOSE PER GRAM
HEART, 20 MIN
  % injected dose per gram: 1.24 % INJECTED DOSE PER GRAM
HEART, 30 MIN
  % injected dose per gram: 0.50 % INJECTED DOSE PER GRAM
KIDNEY, 3 MIN
  % injected dose per gram: 22.41 % INJECTED DOSE PER GRAM
KIDNEY, 5 MIN
  % injected dose per gram: 18.99 % INJECTED DOSE PER GRAM
KIDNEY, 10 MIN
  % injected dose per gram: 13.41 % INJECTED DOSE PER GRAM
KIDNEY, 15 MIN
  % injected dose per gram: 10.26 % INJECTED DOSE PER GRAM
KIDNEY, 20 MIN
  % injected dose per gram: 9.98 % INJECTED DOSE PER GRAM
KIDNEY, 30 MIN
  % injected dose per gram: 5.95 % INJECTED DOSE PER GRAM
LIVER, 3 MIN
  % injected dose per gram: 1.94 % INJECTED DOSE PER GRAM
LIVER, 5 MIN
  % injected dose per gram: 2.00 % INJECTED DOSE PER GRAM
LIVER, 10 MIN
  % injected dose per gram: 1.46 % INJECTED DOSE PER GRAM
LIVER, 15 MIN
  % injected dose per gram: 1.24 % INJECTED DOSE PER GRAM
LIVER, 20 MIN
  % injected dose per gram: 1.04 % INJECTED DOSE PER GRAM
LIVER, 30 MIN
  % injected dose per gram: 0.72 % INJECTED DOSE PER GRAM
LUNGS, 3 MIN
  % injected dose per gram: 5.48 % INJECTED DOSE PER GRAM
LUNGS, 5 MIN
  % injected dose per gram: 5.74 % INJECTED DOSE PER GRAM
LUNGS, 10 MIN
  % injected dose per gram: 4.00 % INJECTED DOSE PER GRAM
LUNGS, 15 MIN
  % injected dose per gram: 3.25 % INJECTED DOSE PER GRAM
LUNGS, 20 MIN
  % injected dose per gram: 2.59 % INJECTED DOSE PER GRAM
LUNGS, 30 MIN
  % injected dose per gram: 1.13 % INJECTED DOSE PER GRAM
MUSCLE, 3 MIN
  % injected dose per gram: 1.98 % INJECTED DOSE PER GRAM
MUSCLE, 5 MIN
  % injected dose per gram: 3.17 % INJECTED DOSE PER GRAM
MUSCLE, 10 MIN
  % injected dose per gram: 1.73 % INJECTED DOSE PER GRAM
MUSCLE, 15 MIN
  % injected dose per gram: 2.40 % INJECTED DOSE PER GRAM
MUSCLE, 20 MIN
  % injected dose per gram: 2.13 % INJECTED DOSE PER GRAM
MUSCLE, 30 MIN
  % injected dose per gram: 0.50 % INJECTED DOSE PER GRAM
SKIN, 3 MIN
  % injected dose per gram: 5.63 % INJECTED DOSE PER GRAM
SKIN, 5 MIN
  % injected dose per gram: 6.18 % INJECTED DOSE PER GRAM
SKIN, 10 MIN
  % injected dose per gram: 4.86 % INJECTED DOSE PER GRAM
SKIN, 15 MIN
  % injected dose per gram: 4.49 % INJECTED DOSE PER GRAM
SKIN, 20 MIN
  % injected dose per gram: 3.41 % INJECTED DOSE PER GRAM
SKIN, 30 MIN
  % injected dose per gram: 1.45 % INJECTED DOSE PER GRAM
SPLEEN, 3 MIN
  % injected dose per gram: 1.96 % INJECTED DOSE PER GRAM
SPLEEN, 5 MIN
  % injected dose per gram: 2.01 % INJECTED DOSE PER GRAM
SPLEEN, 10 MIN
  % injected dose per gram: 1.26 % INJECTED DOSE PER GRAM
SPLEEN, 15 MIN
  % injected dose per gram: 1.09 % INJECTED DOSE PER GRAM
SPLEEN, 20 MIN
  % injected dose per gram: 0.93 % INJECTED DOSE PER GRAM
SPLEEN, 30 MIN
  % injected dose per gram: 0.39 % INJECTED DOSE PER GRAM
STOMACH, 3 MIN
  % injected dose per gram: 2.69 % INJECTED DOSE PER GRAM
STOMACH, 5 MIN
  % injected dose per gram: 3.11 % INJECTED DOSE PER GRAM
STOMACH, 10 MIN
  % injected dose per gram: 2.35 % INJECTED DOSE PER GRAM
STOMACH, 15 MIN
  % injected dose per gram: 1.91 % INJECTED DOSE PER GRAM
STOMACH, 20 MIN
  % injected dose per gram: 1.54 % INJECTED DOSE PER GRAM
STOMACH, 30 MIN
  % injected dose per gram: 0.60 % INJECTED DOSE PER GRAM
